# Tests used:
# mammary tumors = test: Bioassay of mammary cancer prevention (MNU-induced mammary carcinogenesis); assay type: in vivo, Female Sprague-Dawley rats; settings: CLA 0.05-0.37% (treatments A-D); vaccenic acid 0.73-1.6% (treatments E-G)
# Procedure: (§1) Protocol of animal treatment. Female Sprague-Dawley rats were purchased from Charles River Breeding Laboratories (Raleigh, N.C.) at 45 days of age and all subsequent procedures were approved by Roswell Park Cancer Institute Animal Care and Use Committee. Rats were fed the AIN-76 basal diet for 1 week to acclimatize them to the powdered diet. All animals were injected with a single dose of methylnitrosourea (MNU: 50 mg/kg body weight) intraperitoneally at 52 days of age for the induction of mammary tumors. Immediately after MNU administration, a total of 210 rats were divided into 7 groups of 30 each and maintained on different dietary treatments for the following 24 weeks. Throughout this period, rats were palpated weekly to determine the appearance, size, and location of mammary tumors. The experiment was terminated at 24 weeks after MNU administration. All tumors were excised and fixed for histological examination and only confirmed carcinomas are reported in data summaries. Randomly-selected subsets of nine rats from each treatment were necropsied. The tumor-free inguinal mammary fat pad, a portion of the liver, and plasma were retrieved. […]
# (§2) Statistical analyses. Fatty acid composition data were analyzed statistically by the General Linear Model procedure of SAS (SAS Inc., Cary, N.C.). […]
# [1] = Fatty acid analysis of liver, plasma and mammary fat pad lipids (Example 1); assay type: in vivo, Female Sprague-Dawley rats
# Procedure: as §1, with “administration.” for “administration. All tumors were excised and fixed for histological examination and only confirmed carcinomas are reported in data summaries. Randomly-selected subsets of nine rats from each treatment were necropsied. The tumor-free inguinal mammary fat pad, a portion of the liver, and plasma were retrieved.”
# Fatty acid analysis. […] However, because these typically yielded far less lipid, quantities of all reagents for methylation were adjusted to compensate for the reduced yield.
# Fatty acid methyl esters were analyzed by gas chromatography (Hewlett Packard GC system 6890+with flame ionization detector) using a CP-Sil 88 capillary column (100 m×0.25 mm i.d. with 0.2 μm film thickness; Varian Inc.). […]
# as §2
smiles,measurement,setting,value
"CCCCCC/C=C/C=C\CCCCCCCC(=O)O [cis-9, trans-11 CLA, cis-9, trans-11 octadecadienoic acid, reference compound]",Effect of increasing dietary intake on tumor incidence (in words),mammary tumors,the decrease was not statistically significant
"CCCCCC/C=C/CCCCCCCCCC(=O)O [vaccenic acid, trans-11 octadecenoic acid]",Tissue and plasma concentrations of vaccenic acid with increasing intake (in words),[1]; FIG. 1,increased
same,"Content of cis-9, trans-11 CLA within each tissue with increasing supply of vaccenic acid (in words)","[1]; liver, plasma, mammary fat pad, FIG. 3",linearly increased
same,Effect of increasing dietary intake on tumor incidence (in words),mammary tumors,distinct inhibitory response to vaccenic acid which was dose-dependent

# — patent US20050004218A1, “Vaccenic acid” (priority 2003, published 2005)
